Measurements reported in patent US20240058387A1, “CULTURE MEDIUM COMPOSITION FOR AMPLIFYING AND MAINTAINING SELF-RENEWAL CAPACITY AND DIFFERENTIATION POTENTIAL OF HSCS AND APPLICATION THEREOF” (EDIGENE (GUANGZHOU) INC., priority 2020, published 2024).

Tested on: umbilical cord blood-derived CD34+ cells
Assay: In vitro colony-forming unit (CFU) assay
Assay type: cell-based, human
Conditions: FIG. 6, clones counted 14 days after seeding
Description: In this example, the colony-forming unit (CFU) was used to detect the in vitro function of cord blood-derived hematopoietic stem cells induced by a small molecule inhibitor for qualitative and quantitative detection to verify their in vitro differentiation potential.
First, 100 mL of medium MethoCult™ H4034 Optimum (Stem Cell, Cat. No.: 04034) were aliquoted, then thawing at 2-8° C. overnight; shaking vigorously for 1-2 minutes and letting it stand for 10 minutes until the bubbles rised to the liquid level. After tightly fitting the 50 mL syringe needle to the 5 mL disposable syringe, the medium is aspirated to 1 mL, pushing out the syringe completely to exhaust the gas in the syringe, and re-absorbing 3 mL into each 15 mL centrifuge tube (Corning, Cat. No. 430791); storing at 2-8° C. for 1 month, and at −20° C. for long-term storage.
3 mL of medium Meth® Cult′ H4034 Optimum was prepared and thawed overnight at room temperature (15-25° C.) or 2-8° C. […]
Colonies were observed on the 7th and 14th days of culture, and colonies were counted with a STEMgrid™-6 counting grid (stem cell, Cat. number: 27000) after 14 days of culture. […]

For COc1cc2ncc(-c3ccccc3)nc2cc1OC [AG1296], the “number of GEMM clones (CFU-GEMM)” value (1 μM, 8 days treatment) was “significantly better than the other groups” and the “total number of clones” value (different concentrations of AG1296, 8 days treatment) was “little difference between the groups”.
